From patent publication US20120129875A1, “SUBSTITUTED QUINAZOLINES AS FUNGICIDES” (SYNGENTA CROP PROTECTION, LLC, priority 2009, published 2012)

How the values were obtained:
Assay type in all cases: in vivo
[1] = system: Mycosphaerella arachidis (Cercospora arachidicola); assay: Mycosphaerella arachidis (Cercospora arachidicola) / peanut / preventative; conditions: peanut plants cv. Georgia Green, inoculated one day after application, vs untreated control, read-out: disease control
Experimental: Mycosphaerella arachidis (Cercospora arachidicola)/Peanut/Preventative 3-week old peanut plants cv. Georgia Green are treated with the formulated test compound in a spray chamber. The test plants are inoculated by spraying them with a spore suspension on their lower leaf surface one day after application. After an incubation period of 4 days under a plastic hood at 23° C. and 100% rh, the test plants are kept at 23° C./20° C. (day/night) and 70% rh in a greenhouse. The percentage leaf area covered by disease is assessed when an appropriate level of disease appears on untreated check plants (12-14 days after application).

[2] = system: Erysiphe necator (Uncinula necator); assay: Erysiphe necator (Uncinula necator) / grape / preventative (powdery mildew on grape); conditions: grape seedlings cv. Gutedel, inoculated 1 day after application, vs untreated control, read-out: disease control
Experimental: Erysiphe necator (Uncinula necator)/Grape/Preventative (Powdery Mildew on Grape) 5-week old grape seedlings cv. Gutedel are treated with the formulated test compound in a spray chamber. The test plants are inoculated by shaking plants infected with grape powdery mildew above them 1 day after application. The inoculated test plants are incubated at 24/22° C. (day/night) and 70% rh under a light regime of 14/10 h (light/dark) and the percentage leaf area covered by disease is assessed when an appropriate level of disease appears on untreated check plants (7-9 days after application).

[3] = system: Botryotinia fuckeliana (Botrytis cinerea); assay: Botryotinia fuckeliana (Botrytis cinerea) / tomato / preventative (Botrytis on tomato); conditions: tomato plants cv. Roter Gnom, inoculated two days after application, vs untreated control, read-out: disease control
Experimental: (§1) Botryotinia fuckeliana (Botrytis cinerea)/Tomato/Preventative (Botrytis on Tomato) 4-week old tomato plants cv. Roter Gnom are treated with the formulated test compound in a spray chamber. The test plants are inoculated by spraying them with a spore suspension two days after application. The inoculated test plants are incubated at 20° C. and 95% rh in a greenhouse and the percentage leaf area covered by disease is assessed when an appropriate level of disease appears on untreated check plants (5-6 days after application).

Alternaria solani = Alternaria solani / tomato / preventative (Alternaria on tomato); conditions: tomato plants cv. Roter Gnom, inoculated two days after application, vs untreated control, read-out: disease control
Experimental: as §1, with “Alternaria solani/Tomato/Preventative (Alternaria” for “Botryotinia fuckeliana (Botrytis cinerea)/Tomato/Preventative (Botrytis”, “22/18°” for “20°”, “C. (day/night)” for “C.”, “(5-7” for “(5-6”

Plasmopara viticola = Plasmopara viticola / grape / preventative (grape downy mildew); conditions: grape seedlings cv. Gutedel, inoculated one day after application, vs untreated control, read-out: disease control
Experimental: Plasmopara viticola/Grape/Preventative (Grape Downy Mildew)
5-week old grape seedlings cv. Gutedel are treated with the formulated test compound in a spray chamber. The test plants are inoculated by spraying a sporangia suspension on their lower leaf surface one day after application. The inoculated test plants are incubated at 22° C. and 100% rh in a greenhouse and the percentage leaf area covered by disease is assessed when an appropriate level of disease appears on untreated check plants (6-8 days after application).

[4] = system: Pyrenophora teres (Helminthosporium teres); assay: Pyrenophora teres (Helminthosporium teres) / barley / preventative (net blotch on barley); conditions: barley plants cv. Regina, inoculated 2 days after application, vs untreated control, read-out: disease control
Experimental: Pyrenophora teres (Helminthosporium teres)/Barley/Preventative (Net Blotch on Barley) 1-week old barley plants cv. Regina are treated with the formulated test compound in a spray chamber. The test plants are inoculated by spraying them with a spore suspension 2 days after application. The inoculated test plants are incubated at 20° C. and 95% rh and the percentage leaf area covered by disease is assessed when an appropriate level of disease appears on untreated check plants (5-7 days after application).

[5] = system: Mycosphaerella graminicola (Septoria tritici); assay: Mycosphaerella graminicola (Septoria tritici) / wheat / preventative (Septoria tritici leaf spot on wheat); conditions: Zymoseptoria tritici, wheat plants cv. Riband, inoculated one day after application, vs untreated control, read-out: disease control
Experimental: Mycosphaerella graminicola (Septoria tritici)/Wheat/Preventative (Septoria tritici Leaf Spot on Wheat) 2-week old wheat plants cv. Riband are treated with the formulated test compound in a spray chamber. The test plants are inoculated by spraying a spore suspension on them one day after application. After an incubation period of 1 day at 22° C./21° C. (day/night) and 95% rh, the test plants are kept at 22° C./21° C. (day/night) and 70% rh in a greenhouse. The percentage leaf area covered by disease is assessed when an appropriate level of disease appears on untreated check plants (16-19 days after application).

[6] = system: Phaeosphaeria nodorum (Septoria nodorum); assay: Phaeosphaeria nodorum (Septoria nodorum) / wheat / leaf disc preventative (glume blotch); conditions: Parastagonospora nodorum, foliar, wheat leaf segments cv. Kanzler on agar, inoculated 2 days after application, vs untreated control, read-out: disease control
Experimental: Phaeosphaeria nodorum (Septoria nodorum)/Wheat/Leaf Disc Preventative (Glume Blotch) Wheat leaf segments cv. Kanzler are placed on agar in a multiwell plate (24-well format) and sprayed with the formulated test compound diluted in water. The leaf disks are inoculated with a spore suspension of the fungus 2 days after application. The inoculated test leaf disks are incubated at 20° C. and 75% rh under a light regime of 12 h light/12 h darkness in a climate cabinet and the activity of a compound is assessed as percent disease control compared to untreated when an appropriate level of disease damage appears in untreated check leaf disks (5-7 days after application).

Measured: pest or weed control at 200 ppm

Cc1cccc(-c2ncc3ccccc3n2)n1 [10/4]
≥ 80%: [1] | [2]

Cc1ccc(F)c(-c2nc(-c3ncc4ccccc4n3)ccc2C)c1 [3/9]
not listed: [2] | [6]
≥ 80%: all other assays above

COc1ccc(-c2nc(-c3ncc4ccccc4n3)ccc2C)cc1C [3/93]
≥ 80%: Alternaria solani | Plasmopara viticola | [4] | [5]

COc1cccc(Cc2cccc(-c3ncc4ccccc4n3)n2)c1 [6/15]
≥ 80%: Plasmopara viticola | [4] | [5]

Cc1ccccc1Cc1cccc(-c2ncc3ccccc3n2)n1 [6/19]
≥ 80%: Alternaria solani | Plasmopara viticola | [4] | [5]

c1cc(-c2ncc3ccccc3n2)nc(C2CC2)c1 [10/7]
≥ 80%: [3] | Plasmopara viticola | [1] | [2]

Cc1ccc(Cc2cccc(-c3ncc4ccccc4n3)n2)cc1 [6/10]
≥ 80%: [5]

CCc1ccccc1-c1cccc(-c2ncc3ccccc3n2)n1 [2/37]
≥ 80%: [3] | Alternaria solani | Plasmopara viticola | [1]

Cc1ccc(-c2ncc3ccccc3n2)nc1-c1cccc(F)c1F [3/38]
not listed: [5] | [6]
≥ 80%: all other assays above

Cc1ccc(-c2ncc3ccccc3n2)nc1-c1ccc(F)cc1O [3/101]
≥ 80%: [3] | Alternaria solani | Plasmopara viticola | [4] | [5]

Cc1ccc(F)cc1-c1nc(-c2ncc3ccccc3n2)ccc1C [3/26]
≥ 80%: [3] | Alternaria solani | Plasmopara viticola | [4] | [1]

Clc1ccccc1Cc1cccc(-c2ncc3ccccc3n2)n1 [6/16]
not listed: [1] | [6]
≥ 80%: all other assays above

Clc1ccccc1-c1cccc(-c2ncc3ccccc3n2)n1 [2/13]
≥ 80%: [3] | Alternaria solani | Plasmopara viticola | [1]

COc1ccc(Cl)cc1-c1cccc(-c2ncc3ccccc3n2)n1 [2/68]
≥ 80%: Alternaria solani | Plasmopara viticola | [2]

Clc1cccc(Cc2cccc(-c3ncc4ccccc4n3)n2)c1 [6/11]
not listed: Plasmopara viticola | [6]
≥ 80%: all other assays above

c1cc(-c2ncc3ccccc3n2)nc(-c2cccc3ccccc23)c1 [2/6]
≥ 80%: [3] | Alternaria solani | Plasmopara viticola | [4] | [1]

Cc1ccc(C)c(-c2cccc(-c3ncc4ccccc4n3)n2)c1 [2/54]
≥ 80%: Alternaria solani | Plasmopara viticola | [4] | [1] | [2]

Clc1ccc(Cc2cccc(-c3ncc4ccccc4n3)n2)cc1 [6/18]
≥ 80%: Alternaria solani | [4] | [5]

Cc1nc(-c2cccc(Cc3ccccc3)n2)nc2ccccc12 [12/6]
≥ 80%: [6] | Alternaria solani | [2]

Cc1ccc(-c2nc(-c3ncc4ccccc4n3)ccc2C)cc1Cl [3/21]
≥ 80%: [3] | Alternaria solani | Plasmopara viticola | [2]

Cc1ccc(-c2ncc3ccccc3n2)nc1C#CC1CC1 [8/1]
≥ 80%: [3] | Alternaria solani | Plasmopara viticola | [1]

Cc1ccc(-c2ncc3ccccc3n2)nc1-c1ccccc1F [3/82]
≥ 80%: Alternaria solani | Plasmopara viticola | [4] | [5]

Cc1ccc(-c2nc(C)c3ccccc3n2)nc1-c1ccccc1 [11/8, 4-Methyl-2-(5-methyl-6-phenyl-pyridin-2-yl)-quinazoline]
not listed: [3] | [6]
≥ 80%: all other assays above

COc1ccc(-c2nc(-c3ncc4ccccc4n3)ccc2C)c(C)c1 [3/53]
not listed: [5] | [6]
≥ 80%: all other assays above

Cc1ccc(-c2ncc3ccccc3n2)nc1-c1ccc(Cl)cc1 [3/74]
≥ 80%: Alternaria solani | Plasmopara viticola | [4] | [5]

Cc1ccc(-c2ncc3ccccc3n2)nc1Oc1ccc(F)cc1 [5/3]
≥ 80%: Plasmopara viticola | [4] | [1]

Cc1ccc(-c2ncc3ccccc3n2)nc1-c1ccc(F)cc1F [3/83]
≥ 80%: [3] | Alternaria solani | Plasmopara viticola | [4] | [5]

c1ccc(-c2cccc(-c3ncc4ccccc4n3)n2)cc1 [2/1]
≥ 80%: [3] | [1]

Cc1ccc(-c2ncc3ccccc3n2)nc1Cc1cccc(C)c1F [7/7]
≥ 80%: Alternaria solani | Plasmopara viticola | [4] | [2]

Cc1ccc(-c2nc(-c3ncc4ccccc4n3)ccc2C)cc1F [3/94]
≥ 80%: [3] | Alternaria solani | Plasmopara viticola | [4] | [5]
